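Grown in 96-well plates, cells were treated for 48 hours with each compound at five concentrations. Insufficient inhibition: endpoint recorded as highest concentration tested. GI50: concentration for 50% inhibition of growth.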 Activity calls are given as the source filed them. No stated cut-off is given here; in the data, active = GI50 up to about 1.1 µM and inactive = higher.
Legend:
Assay in all cases: growth of human tumour cells (NCI), 48 h
[1] = tested on: NCI-H23
[2] = tested on: A549
[3] = tested on: A498
[4] = tested on: NCI-H226
[5] = tested on: 786-0
[6] = tested on: DU-145
[7] = tested on: SNB-19
[8] = tested on: HT-29
[9] = tested on: HCT-15
[10] = tested on: Hs-578T
[11] = tested on: SNB-75
[12] = tested on: SN12C
[13] = tested on: NCI-H522
[14] = tested on: SW-620
[15] = tested on: UO-31
[16] = tested on: MDA-N
[17] = tested on: RXF 393
[18] = tested on: CCRF-CEM
[19] = tested on: UACC-62
[20] = tested on: MOLT-4

Measured: GI50

O=C(O)C12C3CCC(CC3)C1(C(=O)O)C1CCC2C1 (stereo not drawn)
> 100 µM: [9]
inactive: [1] > 100 µM | [2] > 100 µM | [3] > 100 µM | [4] > 100 µM | [5] > 100 µM | [6] > 100 µM | [7] > 100 µM | [8] > 100 µM | [10] > 100 µM | [11] > 100 µM | [12] > 100 µM | [13] 86.1 µM | [14] > 100 µM | [15] > 100 µM | [16] > 100 µM | [17] > 100 µM | [18] > 100 µM | [19] > 100 µM | [20] > 100 µM

COP(C)(=O)C1=CCN(C(=O)OCC[Si](C)(C)C)CC1 (stereo not drawn)
> 100 µM: [9]
inactive: [1] > 100 µM | [2] > 100 µM | [3] > 100 µM | [4] > 100 µM | [5] > 100 µM | [6] > 100 µM | [7] > 100 µM | [8] > 100 µM | [10] > 100 µM | [11] > 100 µM | [13] > 100 µM | [14] > 100 µM | [15] > 100 µM | [16] > 100 µM | [17] > 100 µM | [18] > 100 µM | [19] > 100 µM

CN1C(c2ccccc2)CC(=NOCc2ccccc2)CC1c1ccccc1 (stereo not drawn)
inactive: [1] 28.2 µM | [2] 20.7 µM | [3] 44.7 µM | [4] 52.8 µM | [5] 38.9 µM | [6] 47.6 µM | [7] 44.3 µM | [8] 26.2 µM | [10] 36 µM | [11] 31.4 µM | [12] 44.6 µM | [13] 21.8 µM | [14] 28.1 µM | [15] 43.6 µM | [16] 23.3 µM | [17] 54.5 µM | [18] 11.6 µM | [19] 52.4 µM | [20] 23.7 µM
23.2 µM: [9]

CN(Cc1cc(Br)cc(Br)c1O)Cc1c(O)ccc2ccccc12
30.3 µM: [9]
inactive: [1] 22.6 µM | [2] 17.7 µM | [3] 20 µM | [4] 20.6 µM | [5] 16.7 µM | [6] 21.1 µM | [7] 17.2 µM | [8] 14.5 µM | [10] 33.1 µM | [11] 19.1 µM | [12] 14.9 µM | [13] 26.7 µM | [14] 32 µM | [15] 14.9 µM | [16] 16.3 µM | [17] 19.4 µM | [18] 20.7 µM | [19] 19.7 µM | [20] 10.4 µM

Cc1noc(C)c1-n1nc2ccc3nonc3c2n1
inactive: [1] > 72.8 µM | [2] > 100 µM | [3] 32.7 µM | [4] > 81.8 µM | [5] 37.5 µM | [6] > 100 µM | [7] 32.3 µM | [8] > 100 µM | [10] 29 µM | [11] 33.1 µM | [12] > 100 µM | [13] > 78.7 µM | [14] > 100 µM | [15] 47.2 µM | [16] > 100 µM | [17] 23 µM | [18] > 100 µM | [19] > 59.8 µM | [20] > 100 µM
> 100 µM: [9]

COc1c(Br)cc2c(c1OC)C(Br)CCC(Br)(Br)C2=O (stereo not drawn)
0.314 µM: [9]
inactive: [2] 4.34 µM | [3] 3.32 µM | [4] 2.21 µM | [6] 3.01 µM | [7] 4.36 µM | [10] 10.4 µM | [11] 9.02 µM | [15] 1.37 µM | [19] 3.18 µM
active: [1] 0.386 µM | [5] 0.385 µM | [8] 0.968 µM | [12] 0.382 µM | [13] 0.393 µM | [14] 0.38 µM | [16] 0.242 µM | [17] 0.706 µM | [20] < 0.0183 µM

Cc1c2c(n3c(nc4ccccc43)c1C#N)N(c1ccc(Cl)cc1)CC2
> 100 µM: [9]
inactive: [1] > 100 µM | [2] > 100 µM | [3] > 100 µM | [4] > 100 µM | [5] > 100 µM | [6] > 100 µM | [7] > 100 µM | [8] > 100 µM | [10] > 100 µM | [11] > 100 µM | [12] > 100 µM | [13] > 100 µM | [14] > 100 µM | [15] > 100 µM | [16] > 100 µM | [17] > 100 µM | [18] > 100 µM | [19] > 100 µM

CON(C)C(=O)[C@H]1C[C@@]1(C)CO
> 100 µM: [9]
inactive: [1] > 100 µM | [2] > 100 µM | [3] > 100 µM | [4] > 100 µM | [5] > 100 µM | [6] > 100 µM | [7] > 100 µM | [8] > 100 µM | [10] > 100 µM | [11] > 100 µM | [12] > 100 µM | [14] > 100 µM | [15] > 100 µM | [16] > 100 µM | [17] > 100 µM | [18] > 100 µM | [19] > 100 µM | [20] > 100 µM

Cc1nn(C2OC(CO)C(O)C(F)C2O)c(=O)[nH]c1=O (stereo not drawn)
active: [20] 0.504 µM
> 100 µM: [9]
inactive: [1] > 100 µM | [2] > 100 µM | [3] > 100 µM | [4] > 100 µM | [5] > 100 µM | [6] > 100 µM | [7] > 100 µM | [8] > 100 µM | [10] > 100 µM | [12] > 100 µM | [13] > 100 µM | [14] > 100 µM | [15] > 100 µM | [16] > 100 µM | [18] > 100 µM | [19] > 100 µM

CO/C=C(/C(=O)OC)c1ccccc1[C@H]1C[C@@H]1c1ccccc1
inactive: [1] 23.2 µM | [2] 21.1 µM | [3] 27.9 µM | [4] 20.5 µM | [5] 31.7 µM | [6] 27.2 µM | [7] 48.3 µM | [8] 18.6 µM | [10] 33.7 µM | [12] 28.6 µM | [13] 12.9 µM | [15] 29.4 µM | [16] 18.7 µM | [17] 49.3 µM | [18] 10.6 µM | [19] 14.9 µM | [20] 30.1 µM
23.4 µM: [9]

Nc1ccc(OCCCc2c(-c3ccccc3)[nH]c(N)nc2=O)cc1
active: [8] < 0.01 µM
> 100 µM: [9]
inactive: [1] 47.2 µM | [3] 16.9 µM | [4] 31 µM | [5] 45.2 µM | [6] 48.2 µM | [7] 67.6 µM | [10] 12.3 µM | [11] 66.4 µM | [12] 50.7 µM | [13] 18.4 µM | [14] > 100 µM | [15] 26 µM | [16] 31.9 µM | [17] 63.8 µM | [18] 43 µM | [19] 16.1 µM | [20] 34.5 µM

O=C1c2ccccc2-c2[nH]c3cn[nH]c(=O)c3c21
82.6 µM: [9]
inactive: [1] > 100 µM | [2] > 100 µM | [3] 33.5 µM | [4] 78.7 µM | [5] > 100 µM | [6] > 100 µM | [7] > 100 µM | [8] > 100 µM | [10] 64.9 µM | [11] 42.6 µM | [12] > 100 µM | [13] 13.4 µM | [14] > 100 µM | [15] 23.8 µM | [16] 61.4 µM | [18] > 100 µM | [19] 45.3 µM | [20] > 100 µM

CN(C)CCCNc1cc(O)c2c(c1O)C(=O)c1ccccc1C2=O
inactive: [1] 13.3 µM | [2] 10.9 µM | [3] 19.5 µM | [4] 18.2 µM | [5] 7.67 µM | [6] 14.8 µM | [7] 6.9 µM | [8] 11 µM | [10] 29.2 µM | [12] 3.48 µM | [13] 21.8 µM | [14] 8.65 µM | [15] 1.69 µM | [16] 14.3 µM | [17] 4.59 µM | [19] 18.4 µM
5.26 µM: [9]

CC1(C)CC2(C)OC(=N)C1(C#N)C2(C#N)C#N (stereo not drawn)
inactive: [1] 8.32 µM | [2] 23.2 µM | [3] 15.2 µM | [4] > 10 µM | [5] 2.63 µM | [6] 14.6 µM | [7] 16.2 µM | [8] 2.77 µM | [10] 13 µM | [12] 10.1 µM | [13] 2.44 µM | [14] 3.1 µM | [15] 4.26 µM | [16] 7.08 µM | [17] 11.6 µM | [19] 12.4 µM | [20] 9.53 µM
2.36 µM: [9]

OC1CN2Cc3cc4c(cc3[C@]13C=C[C@@H](O)CC23)OCO4 (stereo partly drawn)
30.3 µM: [9]
inactive: [1] 36.1 µM | [2] 19.5 µM | [3] 34.4 µM | [4] > 100 µM | [5] 20.9 µM | [6] 8.69 µM | [7] 22.2 µM | [8] 10.9 µM | [10] 57.5 µM | [12] 25.1 µM | [13] 27.3 µM | [14] 28 µM | [15] 33.6 µM | [16] 17 µM | [17] 15.7 µM | [18] 8.57 µM | [19] 33 µM | [20] 16.6 µM
